In ChEMBL document CHEMBL2321687, “Identification of a novel arylpiperazine scaffold for fatty acid amide hydrolase inhibition with improved drug disposition properties” (Bioorg Med Chem Lett, 2013):
Activity calls are given as the source filed them. No cut-off for these calls is given here.

How the values were obtained:
[1] = target: T1, Fatty-acid amide hydrolase 1 (Homo sapiens, UniProt O00519); experiment: Inhibition of human FAAH using [3Hethanolamine]AEA as substrate incubated for 20 mins prior to substrate addition measured after 15 mins by beta counting analysis
T1 sequence (O00519 whole entry): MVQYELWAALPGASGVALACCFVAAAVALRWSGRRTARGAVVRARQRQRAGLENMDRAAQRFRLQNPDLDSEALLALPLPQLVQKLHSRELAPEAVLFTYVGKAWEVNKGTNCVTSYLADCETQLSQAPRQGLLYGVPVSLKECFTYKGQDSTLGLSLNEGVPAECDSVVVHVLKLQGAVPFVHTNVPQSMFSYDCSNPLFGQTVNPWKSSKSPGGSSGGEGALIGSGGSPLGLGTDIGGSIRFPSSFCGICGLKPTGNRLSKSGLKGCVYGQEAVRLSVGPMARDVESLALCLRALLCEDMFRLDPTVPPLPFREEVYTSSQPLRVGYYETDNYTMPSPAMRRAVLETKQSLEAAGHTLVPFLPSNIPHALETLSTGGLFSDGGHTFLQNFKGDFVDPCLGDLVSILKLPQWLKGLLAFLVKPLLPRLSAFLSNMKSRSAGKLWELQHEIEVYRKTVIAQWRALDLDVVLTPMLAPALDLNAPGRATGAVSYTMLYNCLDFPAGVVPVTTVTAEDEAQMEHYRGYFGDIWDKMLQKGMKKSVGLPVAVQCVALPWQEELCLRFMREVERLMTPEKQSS

[2] = target: T2, Fatty-acid amide hydrolase 1 (Mus musculus, UniProt O08914); experiment: Inhibition of FAAH in mouse brain homogenate using [3Hethanolamine]AEA as substrate incubated for 20 mins prior to substrate addition measured after 15 mins by beta counting analysis; format: tissue-based
T2 sequence (O08914 whole entry): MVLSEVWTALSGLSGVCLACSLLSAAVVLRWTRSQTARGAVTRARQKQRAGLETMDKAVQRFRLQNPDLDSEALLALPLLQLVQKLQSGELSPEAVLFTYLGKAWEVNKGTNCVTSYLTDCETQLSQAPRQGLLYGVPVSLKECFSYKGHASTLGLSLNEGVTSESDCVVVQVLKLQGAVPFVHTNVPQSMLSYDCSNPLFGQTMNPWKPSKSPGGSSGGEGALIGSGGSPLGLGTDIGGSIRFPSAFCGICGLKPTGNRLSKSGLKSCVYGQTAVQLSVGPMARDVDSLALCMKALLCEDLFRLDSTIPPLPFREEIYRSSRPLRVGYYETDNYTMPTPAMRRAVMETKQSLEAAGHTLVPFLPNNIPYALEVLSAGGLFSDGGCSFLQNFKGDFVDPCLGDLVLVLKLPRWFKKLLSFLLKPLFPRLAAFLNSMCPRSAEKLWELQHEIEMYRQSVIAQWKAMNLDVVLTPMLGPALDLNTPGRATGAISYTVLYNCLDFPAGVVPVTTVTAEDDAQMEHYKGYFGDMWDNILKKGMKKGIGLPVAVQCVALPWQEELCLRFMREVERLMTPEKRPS

[3] = target: Fatty-acid amide hydrolase 1 (Mus musculus) (UniProt O08914); experiment: Reversible noncompetitive inhibition of FAAH in mouse brain homogenate using [3Hethanolamine]AEA as substrate incubated for 20 mins prior to dialysis for 18 hrs followed by substrate addition measured after 15 mins; format: tissue-based

**Q.** What does the source list for NC(=O)c1ccn(-c2cccc(N3CCN(CCCCCCc4ccccc4)CC3)c2)c1?
**A.** IC50 [1]: > 1000 nM; Ki [2]: 10 nM; inhibition [3]: Active
